Data set [1] concerns vesiculo-vacuolar organelles and inter-endothelial junctions. Briefly: Electron microscopy of skin venules with ferritin tracer. Particulars: uninjected skin or skin injected with buffer. Type of data set: in vivo, SCID mice. As for the experimental part:
SCID mice were treated for three days with TNP-470 (30 mg/kg) or saline, following which anionic Ferritin tracer was injected i.v. into mice and 50 μl of human VEGF165 (1 ng/μl), or 50 μl of PBS were injected intradermally into pre-shaved flank skin. After 15 min, animals were euthanized by cervical dislocation. Skin test and control sites were excised and fixed by immersion for 4 hours in freshly prepared 2.0% paraformaldehyde-2.5% glutaraldehyde-0.025% calcium chloride in 0.1 M sodium cacodylate buffer, pH 7.4. Tissues were postfixed for 2 h in 1.5% sym-collidine-buffered osmium tetroxide, stained en bloc with uranyl acetate, dehydrated in a graded series of alcohols, and embedded in Spurr resin as previously described (Dvorak et al., 1996; Feng et al., 1996). Thin sections were then cut, collected on carbon-Formvar-coated single slot grids, and viewed in an electron microscope (CM10; Philips, Eindhoven, The Netherlands).

Another data set deals with U87 glioblastoma cells. Briefly: Cell proliferation assay, U87. Particulars: 72 hours. Type of data set: cell-based, human. As to the method: HMVEC-d cells were trypsinized (0.05% trypsin) and resuspended (15,000 cells/ml) in EBM-2 supplemented with 5% fetal bovine serum (FBS), plated onto gelatinized 24-well culture plates (0.5 ml/well), and incubated for 24 hours (37° C., 5% CO2). The media was replaced with 0.5 ml of complete media (serum and growth factors; EGM-2 MV), and test substances were applied. Cells were challenged with free or conjugated TNP-470 (0.01 pg/ml to 1 mg/ml TNP-470-equivalent concentration). Control cells were grown with or without growth factors. U87 glioblastoma cells were washed with PBS, trypsinized and resuspended (5,000 cells/ml) in DMEM supplemented with 10% FBS, plated onto 24-well culture plates (0.5 ml/well), and incubated for 24 hours (37° C., 5% CO2). The media was replaced with 0.5 ml of DMEM and 10% FBS, and the test sample applied. Cells were challenged with free or conjugated TNP-470 (0.01 pg/ml to 1 mg/ml TNP-470-equivalent concentration). Control cells were grown with or without 10% FBS. Both cell types were incubated for 72 hours, followed by trypsinization, resuspension in Hematall (Fisher Scientific, Pittsburgh, Pa.), and counted in a Coulter counter.

Molecules are shown by their SMILES.

The text below walks through data of US20050203013A1, “Methods for inhibiting vascular permeability” (priority 2002, published 2005).

Consider `CO[C@@H]1[C@H](OC(=O)NC(=O)CCl)CC[C@]2(CO2)[C@H]1[C@@]1(C)O[C@@H]1CC=C(C)C` [TNP-470], for which the “extravasation of circulating ferritin via VVOs” value in data set [1] is given as “reduced”. For the same molecule, in the data set on U87 glioblastoma cells (U87 glioblastoma cells), the “concentration inhibiting serum-induced proliferation (cytostatic effect)” value was “higher than 10 ng/ml”. Also, the cytotoxic concentration entry in the data set on U87 glioblastoma cells (U87 tumor cells) is “higher than 100 μg/ml”.
